How the values were obtained:
[1] = molecular target: T1, AChE from electric eel (Electrophorus electricus) (Electrophorus electricus, UniProt O42275); assay: In vitro AChE inhibition, modified Ellman's method; assay type: biochemical
T1 construct: AChE (from electric eel) and BChE (from equine serum); purchased Sigma, St. Louis, MO, USA; host or cells: electric eel (animal source)
Description: (§1) The ability of all prepared compounds to inhibit AChE from electric eel (Electrophorus electricus) and BChE from equine serum (both purchased from Sigma, St. Louis, MO, USA) was determined in vitro using a modified Ellman’s method. […] The Ellman’s method is widely used for measuring cholinesterase activity and the effectivity of ChEIs. It is a simple, rapid and direct method to determine SH and –S–S– groups content in proteins. Cholinesterase activity is measured indirectly by quantifying the concentration of 5-thio-2-nitrobenzoic acid (TNB) ion formed in the reaction between disulfide reagent 5,5′-dithiobis-2-nitrobenzoic acid (DTNB) and thiocholine, a product of substrate (i.e., acetylthiocholine, ATCh) hydrolysis catalyzed by cholinesterase.
(§2) All tested compounds were dissolved in DMSO (concentration 0.01 M) and diluted in demineralized water (concentrations 0.001 M and 0.0001 M). The ability of tested compounds to inhibit AChE (from electric eel) and BChE (from equine serum) was determined using the modified Ellman’s method at 25 °C in the presence of phosphate buffered saline (PBS, 0.1 M, pH 7.4) in a glass cuvette with 1 cm optical path. The enzyme activity in total reaction mixture (2 mL) was 0.2 U/mL, the concentration of substrate ATCh 40 μM and the concentration of DTNB 0.1 mM for all reactions. The IC50 value was obtained from the dependence of v0/vi on the concentration of the tested compound (inhibitor), where v0 is the reaction rate of uninhibited reaction and vi is the reaction rate of inhibited reaction (for the given concentration of the inhibitor). First, v0 was determined. Into the cuvette PBS (0.1 M, pH 7.4), DTNB and ATCh were placed. The enzymatic reaction was started by adding the enzyme. […] The measurement was performed in triplicate at least, and average v0 was determined. Then, vi (for the given concentration of the inhibitor) was determined. Into the cuvette DTNB, ATCh, a chosen volume of the suitably diluted inhibitor (to achieve the required concentration of the inhibitor in the total reaction mixture) and a certain volume of PBS (to achieve the total volume of the reaction mixture 2 mL after adding the enzyme) were placed. The enzymatic reaction was started by adding the enzyme. […] For determination of IC50 values, twelve different concentrations of inhibitor were used and each measurement was performed in triplicate at least.

[2] = molecular target: T2, BChE from equine serum (Equus caballus, UniProt P81908); assay: In vitro BChE inhibition, modified Ellman's method; assay type: biochemical; settings: for SI (index selectivity) = IC50 (AChE)/IC50 (BChE): ratio AChE/BChE, higher = more selective to BChE
T2 construct: BChE (from equine serum); purchased Sigma, St. Louis, MO, USA; host or cells: equine serum
Description: as §1, §2

[3] = test system: human monocytic leukemia THP-1 cells; assay: In vitro cytotoxicity assay (WST-1); assay type: cell-based; settings: 24 h, highest tested concentration 30 μM, read-out: tox. IC50
Description: The cytotoxicity was evaluated as the IC50 value (compound concentration causing 50% inhibition of cell population proliferation) (see Table 1). […] Based on these observations, it can be concluded that the discussed compounds can be considered as non-toxic agents for subsequent design of novel drugs.
Human monocytic leukemia THP-1 cells were used for in vitro toxicity assay. Cells were obtained from the European Collection of Cell Cultures (ECACC, Salisbury, UK) and routinely cultured in RPMI 1640 (Lonza, Verviers, Belgium) medium supplemented with 10% fetal bovine serum (FBS, Sigma), 2% L-glutamine, 1% penicillin and streptomycin (Lonza, Verviers, Belgium) at 37 °C with 5% CO2. Cells were passaged at approximately one week intervals. The cytotoxicity of the compounds was determined using a WST-1 assay kit (Roche Diagnostics, Mannheim, Germany) according to the manufacturer’s instructions. The tested compounds were dissolved in DMSO and added in five increasing concentrations (0.37, 1.1, 3.3, 10, and 30 μM) to the cell suspension in the culture RPMI 1640 medium. The maximum concentration of DMSO (Sigma) in the assays never exceeded 0.1%. Subsequently, the cells were incubated for 24 h at 37 °C with 5% CO2. For WST-1 assays, cells were seeded into 96-well plates (5 × 10^4 cells/well in 100 μL culture medium) in triplicate in serum-free RPMI 1640 medium, and measurements were taken 24 h after the treatment with the compounds. The median inhibition concentration values, IC50, were deduced through the production of a dose-response curve. All data were evaluated using the GraphPad Prism 5.00 software (GraphPad Software, San Diego, CA, USA).

T2 sequence (P81908 whole entry): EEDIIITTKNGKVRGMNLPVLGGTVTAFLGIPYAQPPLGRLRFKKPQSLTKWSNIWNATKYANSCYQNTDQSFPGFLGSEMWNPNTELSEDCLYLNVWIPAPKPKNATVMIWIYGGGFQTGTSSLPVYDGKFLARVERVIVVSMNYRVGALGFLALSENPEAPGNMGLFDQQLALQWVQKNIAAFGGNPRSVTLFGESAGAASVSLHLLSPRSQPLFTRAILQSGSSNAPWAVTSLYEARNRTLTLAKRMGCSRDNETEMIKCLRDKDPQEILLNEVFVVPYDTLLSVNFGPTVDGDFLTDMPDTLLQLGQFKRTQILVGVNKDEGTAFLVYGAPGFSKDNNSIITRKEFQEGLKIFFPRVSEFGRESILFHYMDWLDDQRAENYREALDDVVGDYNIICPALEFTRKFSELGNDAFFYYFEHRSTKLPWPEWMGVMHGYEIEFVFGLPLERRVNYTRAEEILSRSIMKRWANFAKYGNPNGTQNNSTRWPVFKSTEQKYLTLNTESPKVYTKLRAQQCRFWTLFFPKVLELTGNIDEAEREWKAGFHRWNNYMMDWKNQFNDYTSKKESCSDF
T1 sequence (O42275 24-633): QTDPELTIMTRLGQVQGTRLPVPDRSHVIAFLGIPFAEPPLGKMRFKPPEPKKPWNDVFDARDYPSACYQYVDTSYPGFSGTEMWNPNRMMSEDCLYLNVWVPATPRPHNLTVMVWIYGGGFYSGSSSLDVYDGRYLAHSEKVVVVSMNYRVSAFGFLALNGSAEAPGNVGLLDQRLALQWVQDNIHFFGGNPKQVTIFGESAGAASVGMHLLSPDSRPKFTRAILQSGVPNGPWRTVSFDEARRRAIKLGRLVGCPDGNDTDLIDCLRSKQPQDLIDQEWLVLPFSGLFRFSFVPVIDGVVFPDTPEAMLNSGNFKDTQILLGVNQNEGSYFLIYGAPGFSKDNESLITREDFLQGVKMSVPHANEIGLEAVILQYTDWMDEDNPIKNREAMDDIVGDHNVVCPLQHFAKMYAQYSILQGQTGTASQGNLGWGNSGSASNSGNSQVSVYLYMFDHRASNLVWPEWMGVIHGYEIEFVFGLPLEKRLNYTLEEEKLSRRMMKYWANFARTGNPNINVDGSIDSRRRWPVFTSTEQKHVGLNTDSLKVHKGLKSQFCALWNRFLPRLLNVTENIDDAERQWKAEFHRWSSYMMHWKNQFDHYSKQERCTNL

O=C(Nc1ccc([N+](=O)[O-])cc1)[C@@H]1CCCN1C(=O)OCc1ccccc1 [Compound 8c, Benzyl (2S)-2-[(4-nitrophenyl)carbamoyl]pyrrolidine-1-carboxylate]
IC50 [1]: 84.52 ± 0.06 µM
IC50 [2]: 58.75 ± 0.27 µM
SI (index selectivity) = IC50 (AChE)/IC50 (BChE) [2]: 1.44
IC50 [3]: > 30 µM

O=C(Nc1ccccc1O)[C@@H]1CCCN1C(=O)OCc1ccccc1 [Compound 9a, Benzyl (2S)-2-[(2-hydroxyphenyl)carbamoyl]pyrrolidine-1-carboxylate]
IC50 [1]: 153 ± 9.97 µM
IC50 [2]: 42 ± 1.26 µM
selectivity to BChE (in words) ([2]; BChE vs AChE): greater selectivity to BChE
SI (index selectivity) = IC50 (AChE)/IC50 (BChE) [2]: 3.65
IC50 [3]: > 30 µM

O=C(Nc1cccc(Cl)c1)[C@@H]1CCCN1C(=O)OCc1ccccc1 [Compound 5b, Benzyl (2S)-2-[(3-chlorophenyl)carbamoyl]pyrrolidine-1-carboxylate]
IC50 [1]: 48.27 ± 0.11 µM
IC50 [2]: 64.2 ± 7.14 µM
SI (index selectivity) = IC50 (AChE)/IC50 (BChE) [2]: 0.75
IC50 [3]: > 30 µM
